Test results taken from patent US12043600B2, “Microbiocidal compounds” (SYNGENTA CROP PROTECTION AG, priority 2018, dated 2024).

Columns and labels:
[1] = test system: Puccinia recondita f. sp. tritici; experiment: Puccinia recondita f. sp. tritici/Wheat/Leaf Disc Preventative (Brown Rust); format: in vivo; conditions: foliar, 200 ppm, wheat leaf disc preventative, compared to untreated control, read-out: control of Puccinia recondita f. sp. tritici
[2] = test system: Puccinia recondita f. sp. tritici; experiment: Puccinia recondita f. sp. tritici/Wheat/Leaf Disc Curative (Brown Rust); format: in vivo; conditions: foliar, wheat leaf disc curative, compared to untreated control
Procedure, shortened: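 Formulated compound, diluted in water, is applied to inoculated wheat cv. Kanzler leaf segments on agar one day post-inoculation (pre-incubation dark, 19° C, 75% rh). After 6-8 days at 19° C, 75% rh and 12 h/12 h light, activity is rated as percent disease control relative to untreated segments.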

[3] = test system: Glomerella lagenarium (Colletotrichum lagenarium); experiment: Glomerella lagenarium (Colletotrichum lagenarium)/Liquid Culture (Anthracnose); format: cell-based; conditions: Colletotrichum orbiculare, liquid culture, compared to untreated control
[4] = test system: Mycosphaerella arachidis (Cercospora arachidicola); experiment: Mycosphaerella arachidis (Cercospora arachidicola)/Liquid Culture (Early Leaf Spot); format: cell-based; conditions: liquid culture, compared to untreated control
Procedure, shortened: (§1)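 PDB + cryo-stored conidia; compound in DMSO pre-plated, spore broth added on top.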

[5] = test system: Mycosphaerella graminicola (Septoria tritici); experiment: Mycosphaerella graminicola (Septoria tritici)/Liquid Culture (Septoria Blotch); format: cell-based; conditions: Zymoseptoria tritici; 20 ppm; liquid culture; compared to untreated control
Procedure, shortened: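 Results given as % disease control: test compound in DMSO was placed in wells first, then potato dextrose broth carrying cryostored fungal conidia was added.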

[6] = test system: Blumeria graminis f. sp. tritici (Erysiphe graminis f. sp. tritici); experiment: Blumeria graminis f. sp. tritici/Wheat/Leaf Disc Preventative (Powdery Mildew on Wheat); format: in vivo; conditions: foliar, wheat leaf disc preventative, compared to untreated control
Procedure, shortened: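 Preventative leaf-disc test: percent disease control versus untreated leaf segments read 6-8 days post-application. Compound spray applied to wheat cv. Kanzler segments on agar one day before shaking infected plants over them; incubation at 20° C and 60% rh, 24 h darkness then 12 h light/12 h dark cycles.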

Alternaria solani = experiment: Alternaria solani/Tomato/Leaf Disc (Early Blight); format: in vivo; conditions: foliar, tomato leaf disc, compared to untreated control
Protocol: Tomato leaf disks cv. Baby are placed on agar in multiwell plates (24-well format) and sprayed with the formulated test compound diluted in water. The leaf disks are inoculated with a spore suspension of the fungus 2 days after application. The inoculated leaf disks are incubated at 23° C./21° C. (day/night) and 80% rh (relative humidity) under a light regime of 12/12 h (light/dark) in a climate cabinet and the activity of a compound is assessed as percent disease control compared to untreated when an appropriate level of disease damage appears on untreated check disk leaf disks (5-7 days after application).

[7] = test system: Monographella nivalis (Microdochium nivale); experiment: Monographella nivalis (Microdochium nivale)/Liquid Culture (Foot Rot Cereals); format: cell-based; conditions: liquid culture, compared to untreated control
Procedure, shortened: as §1

Phakopsora pachyrhizi = experiment: Phakopsora pachyrhizi/Soybean/Preventative (Soybean Rust); format: in vivo; conditions: foliar, 288 h, 200 ppm, soybean leaf disc preventative, compared to untreated control, read-out: control of Phakopsora pachyrhizi
Plasmopara viticola = experiment: whole plant or invertebrate; format: in vivo; conditions: foliar, read-out: control of Plasmopara viticola
[8] = test system: Magnaporthe grisea (Pyricularia oryzae); experiment: whole plant or invertebrate; format: in vivo; conditions: foliar, read-out: control of Magnaporthe grisea
Phytophthora infestans = experiment: whole plant or invertebrate; format: in vivo; conditions: in Solanum lycopersicum, foliar, read-out: control of Phytophthora infestans
Pyrenophora teres = experiment: Pyrenophora teres/Barley/Leaf Disc Preventative (Net Blotch); format: in vivo; conditions: foliar, 200 ppm, barley leaf disc preventative, compared to untreated control, read-out: control of Pyrenophora teres
Source text: Barley leaf segments cv. Hasso are placed on agar in a multiwell plate (24-well format) and sprayed with the formulated test compound diluted in water. The leaf segments are inoculated with a spore suspension of the fungus 2 days after application. […] The data are presented as the percentage of disease control of each compound for the biological tests against G. lagenarium (Example B3), P. recondita preventative (Example B13), P. teres (Example B15) and M. graminicola (Example B19) as described above. The testing rates of each biological test is specifically described in table C1 below.

[9] = test system: Phaeosphaeria nodorum (Septoria nodorum); experiment: Phaeosphaeria nodorum (Septoria nodorum)/Wheat/Leaf Disc Preventative (Glume Blotch); format: in vivo; conditions: Parastagonospora nodorum, foliar, wheat leaf disc preventative, compared to untreated control
Procedure, shortened: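 Preventative test: compound spray first, then spore inoculation after 2 days on cv. Kanzler wheat leaf segments. Incubation in a climate cabinet at 20 °C and 75% rh under a 12 h light/12 h dark cycle. Activity rated as % control relative to untreated discs at 5–7 days post-application.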

[10] = test system: Botryotinia fuckeliana (Botrytis cinerea); experiment: Botryotinia fuckeliana (Botrytis cinerea)/Liquid Culture (Gray Mould); format: cell-based; conditions: liquid culture, compared to untreated control
Protocol: Conidia of the fungus from cryogenic storage are directly mixed into nutrient broth (Vogels broth). After placing a (DMSO) solution of test compound into a microtiter plate (96-well format), the nutrient broth containing the fungal spores is added.

Row | SMILES | pest or weed control at 200 ppm [1] [%] | pest or weed control at 200 ppm [2] [%] | inhibition of growth at 20 ppm [3] [%] | inhibition of growth at 20 ppm [4] [%] | inhibition of growth at 20 ppm [5] [%] | pest or weed control at 200 ppm [6] [%] | pest or weed control at 200 ppm (Alternaria solani) [%] | inhibition of growth at 20 ppm [7] [%] | melting point [°C] | pest or weed control at 200 ppm (Phakopsora pachyrhizi) [%] | pest or weed control at 200 ppm (Plasmopara viticola) [%] | pest or weed control at 200 ppm [8] [%] | pest or weed control at 200 ppm (Phytophthora infestans) [%] | pest or weed control at 200 ppm (Pyrenophora teres) [%] | pest or weed control at 200 ppm [9] [%] | inhibition of growth at 20 ppm [10] [%]
1 | CO/C=C(\Oc1cccc(-n2ccc(C(F)(F)F)n2)c1)C(=O)OC [Compound E-15, methyl (Z)-3-methoxy-2-[3-[3-(trifluoromethyl)pyrazol-1-yl]phenoxy]prop-2-enoate] | ≥ 80 | ≥ 80 | ≥ 80 | ≥ 80 | ≥ 80 | ≥ 80 | ≥ 80 | ≥ 80 |  |  |  |  |  |  |  | 
2 | CO/C=C(\Oc1cc(-n2ccc(C)n2)c(C)cc1C)C(=O)OC [Compound E-17, methyl (Z)-2-[2,4-dimethyl-5-(3-methylpyrazol-1-yl)phenoxy]-3-methoxy-prop-2-enoate] | ≥ 80 | ≥ 80 |  | ≥ 80 | ≥ 80 | ≥ 80 | ≥ 80 | ≥ 80 | 123 to 124 |  |  |  |  |  |  | 
3 | CO/C=C(\Oc1cc(-n2ccc(C(F)(F)F)n2)c(Cl)cc1C)C(=O)OC [Compound E-27, methyl (Z)-2-[4-chloro-2-methyl-5-[3-(trifluoromethyl)pyrazol-1-yl]phenoxy]-3-methoxy-prop-2-enoate] | ≥ 80 | ≥ 80 | ≥ 80 | ≥ 80 | ≥ 80 | ≥ 80 | ≥ 80 | ≥ 80 |  | ≥ 50 | ≥ 80 | ≥ 80 |  |  |  | 
4 | CO/C=C(\Oc1cc(-n2cc(Cl)cn2)ccc1C)C(=O)OC [Compound E-54, methyl (Z)-2-[5-(4-chloropyrazol-1-yl)-2-methyl-phenoxy]-3-methoxy-prop-2-enoate] | ≥ 80 |  | ≥ 80 | ≥ 80 | ≥ 80 | ≥ 80 |  | ≥ 80 |  |  | ≥ 80 |  | ≥ 80 | ≥ 80 | ≥ 80 | ≥ 80
5 | CO/C=C(\Oc1cc(-n2cc(C)c(C(F)(F)F)n2)ccc1C)C(=O)OC [Compound E-75, methyl (Z)-3-methoxy-2-[2-methyl-5-[4-methyl-3-(trifluoromethyl)pyrazol-1-yl]phenoxy]prop-2-enoate] | ≥ 80 |  |  | ≥ 80 | ≥ 80 | ≥ 80 |  | ≥ 80 | 131 to 134 |  | ≥ 80 |  |  | ≥ 80 | ≥ 80 | ≥ 80
6 | CO/C=C(\Oc1cc(-n2cc(C(F)(F)F)cn2)ccc1C)C(=O)OC [Compound E-81, methyl (Z)-3-methoxy-2-[2-methyl-5-[4-(trifluoromethyl)pyrazol-1-yl]phenoxy]prop-2-enoate] | ≥ 80 |  | ≥ 80 | ≥ 80 | ≥ 80 | ≥ 80 |  | ≥ 80 | 102 to 105 | ≥ 50 | ≥ 80 | ≥ 80 | ≥ 80 | ≥ 80 | ≥ 80 | ≥ 80
7 | CO/C=C(\Oc1cc(-n2cc(Cl)c(C3CCCCC3)n2)ccc1C)C(=O)OC [Compound E-112, methyl (Z)-2-[5-(4-chloro-3-cyclohexyl-pyrazol-1-yl)-2-methyl-phenoxy]-3-methoxy-prop-2-enoate] |  | ≥ 80 | ≥ 80 | ≥ 80 |  |  |  | ≥ 80 | 150 to 152 |  | ≥ 80 | ≥ 80 |  | ≥ 80 | ≥ 80 | 
8 | CO/C=C(\Oc1cc(-n2cc(C)c(C3CCCCC3)n2)ccc1C)C(=O)OC [Compound E-113, methyl (Z)-2-[5-(3-cyclohexyl-4-methyl-pyrazol-1-yl)-2-methyl-phenoxy]-3-methoxy-prop-2-enoate] | ≥ 80 |  | ≥ 80 | ≥ 80 | ≥ 80 |  | ≥ 80 | ≥ 80 | 145 to 148 |  | ≥ 80 | ≥ 80 | ≥ 80 |  | ≥ 80 | 
9 | CO/C=C(\Oc1cc(-n2ccc(C(F)(F)Cl)n2)ccc1C)C(=O)OC [Compound E-118, methyl (Z)-2-[5-[3-[chloro(difluoro)methyl]pyrazol-1-yl]-2-methyl-phenoxy]-3-methoxy-prop-2-enoate] | ≥ 80 | ≥ 80 | ≥ 80 | ≥ 80 | ≥ 80 | ≥ 80 |  | ≥ 80 | 146 to 148 |  | ≥ 80 | ≥ 80 | ≥ 80 | ≥ 80 | ≥ 80 | 
10 | C=C(C)c1cnn(-c2ccc(C)c(O/C(=C\OC)C(=O)OC)c2)n1 [Compound F-11, methyl (Z)-2-[5-(4-isopropenyltriazol-2-yl)-2-methyl-phenoxy]-3-methoxy-prop-2-enoate] | ≥ 80 | ≥ 80 | ≥ 80 | ≥ 80 | ≥ 80 | ≥ 80 |  | ≥ 80 |  |  | ≥ 80 | ≥ 80 | ≥ 80 | ≥ 80 | ≥ 80 | 
11 | CCON=C(C)c1cnn(-c2ccc(C)c(O/C(=C\OC)C(=O)OC)c2)n1 [Compound F-12, methyl (Z)-2-[5-[4-(N-ethoxy-C-methyl-carbonimidoyl)triazol-2-yl]-2-methyl-phenoxy]-3-methoxy-prop-2-enoate] | ≥ 80 | ≥ 80 | ≥ 80 | ≥ 80 | ≥ 80 | ≥ 80 |  | ≥ 80 | 113 to 116 |  | ≥ 80 | ≥ 80 | ≥ 80 | ≥ 80 | ≥ 80 | 
